Measurements from PubChem BioAssay (NCI).
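Each compound was tested at five concentrations against cells in 96-well plates for 48 hours. At the GI50, growth is halved. Definition used: TGI = concentration required for complete inhibition of growth.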

Key:
Test in all cases: inhibition of tumour cell growth, NCI panel, 48 h
[1] = tested on: OVCAR-5 ovarian
[2] = tested on: DU-145 prostate
[3] = tested on: COLO 205 colon
[4] = tested on: SR leukemia
[5] = tested on: SK-MEL-2 melanoma
[6] = tested on: A549 NSCLC
[7] = tested on: A498 renal
[8] = tested on: 786-0 renal
[9] = tested on: SF-268 CNS
[10] = tested on: UACC-257 melanoma
[11] = tested on: PC-3 prostate
[12] = tested on: HCC-2998 colon
[13] = tested on: OVCAR-3 ovarian
[14] = tested on: OVCAR-4 ovarian
[15] = tested on: RXF 393 renal
[16] = tested on: NCI-H226 lung
[17] = tested on: OVCAR-8 ovarian
[18] = tested on: HT29 colon
[19] = tested on: HL-60(TB) leukemia
[20] = tested on: MDA-MB-435
[21] = tested on: MDA-MB-231 breast
[22] = tested on: LOX IMVI melanoma
[23] = tested on: SF-295 CNS
[24] = tested on: TK-10 renal
[25] = tested on: HOP-92 NSCLC
[26] = tested on: SN12C renal
[27] = tested on: IGROV1 ovarian
[28] = tested on: SF-539 CNS
[29] = tested on: RPMI-8226 leukemia
[30] = tested on: NCI-H460 lung
[31] = tested on: T-47D breast
[32] = tested on: U251 CNS
[33] = tested on: NCI-H23 lung
[34] = tested on: SK-MEL-5 melanoma
[35] = tested on: CCRF-CEM leukemia
[36] = tested on: NCI/ADR-RES ovarian
[37] = tested on: KM12 colon
[38] = tested on: ACHN renal
[39] = tested on: UO-31 renal
[40] = tested on: SNB-19 CNS
[41] = tested on: HOP-62 NSCLC
[42] = tested on: M14 melanoma
[43] = tested on: EKVX NSCLC
[44] = tested on: HCT-116 colon
[45] = tested on: MOLT-4 leukemia
[46] = tested on: UACC-62 melanoma
[47] = tested on: MALME-3M melanoma
[48] = tested on: NCI-H522 lung
[49] = tested on: CAKI-1 renal
[50] = tested on: HCT-15 colon
[51] = tested on: SW-620 colon
[52] = tested on: BT-549 breast
[53] = tested on: SNB-75 CNS
[54] = tested on: MCF7 breast
[55] = tested on: SK-OV-3 ovarian
[56] = tested on: SK-MEL-28 melanoma
[57] = tested on: K-562 leukemia
[58] = tested on: HS 578T breast

Question: With `CN1CCN(Cc2ccc(NC(=O)c3cncc(C#Cc4cnc5ccc(N6CCN(C)CC6)nn45)c3)cc2C(F)(F)F)CC1` as the compound, how does the GI50 [1] read?
Answer: The GI50 was 1830 nM.

Question: What about the TGI [1] of the same compound?
Answer: The TGI was 4220 nM.

Question: And the GI50 [2]?
Answer: The GI50 was 1590 nM.

Question: And the TGI [2]?
Answer: Its TGI is 2940 nM.

Question: What about the GI50 [3] of the same compound?
Answer: The GI50 was 1580 nM.

Question: And the TGI [3]?
Answer: The TGI was 3630 nM.

Question: What about the GI50 [4] of the same compound?
Answer: Its GI50 is 781 nM.

Question: What about the TGI [4] of the same compound?
Answer: Its TGI is 2920 nM.

Question: What about the GI50 [5] of the same compound?
Answer: The GI50 was 10700 nM.

Question: And the TGI [5]?
Answer: The TGI was 23300 nM.

Question: What about the GI50 [6] of the same compound?
Answer: The GI50 was 1620 nM.

Question: What about the TGI [6] of the same compound?
Answer: The TGI was 3910 nM.

Question: What about the GI50 [7] of the same compound?
Answer: Its GI50 is 2130 nM.

Question: What about the TGI [7] of the same compound?
Answer: Its TGI is 3610 nM.

Question: And the GI50 [8]?
Answer: The GI50 was 1550 nM.

Question: What about the TGI [8] of the same compound?
Answer: Its TGI is 3110 nM.

Question: And the GI50 [9]?
Answer: Its GI50 is 1530 nM.

Question: What about the TGI [9] of the same compound?
Answer: The TGI was 3200 nM.

Question: What about the GI50 [10] of the same compound?
Answer: Its GI50 is 4980 nM.

Question: And the TGI [10]?
Answer: Its TGI is 18800 nM.

Question: And the GI50 [11]?
Answer: The GI50 was 1660 nM.

Question: And the TGI [11]?
Answer: Its TGI is 5100 nM.

Question: And the GI50 [12]?
Answer: The GI50 was 1640 nM.

Question: And the TGI [12]?
Answer: The TGI was 3050 nM.

Question: What about the GI50 [13] of the same compound?
Answer: Its GI50 is 2150 nM.

Question: What about the TGI [13] of the same compound?
Answer: The TGI was 4110 nM.

Question: What about the GI50 [14] of the same compound?
Answer: Its GI50 is 1230 nM.

Question: And the TGI [14]?
Answer: The TGI was 3010 nM.

Question: What about the GI50 [15] of the same compound?
Answer: The GI50 was 786 nM.

Question: What about the TGI [15] of the same compound?
Answer: Its TGI is 2080 nM.

Question: And the GI50 [16]?
Answer: Its GI50 is 436 nM.

Question: What about the TGI [16] of the same compound?
Answer: Its TGI is 10700 nM.

Question: And the GI50 [17]?
Answer: The GI50 was 1760 nM.

Question: And the TGI [17]?
Answer: The TGI was 3630 nM.

Question: And the GI50 [18]?
Answer: Its GI50 is 1180 nM.

Question: What about the TGI [18] of the same compound?
Answer: The TGI was 3430 nM.

Question: What about the GI50 [19] of the same compound?
Answer: Its GI50 is 2180 nM.

Question: What about the TGI [19] of the same compound?
Answer: Its TGI is 4110 nM.

Question: And the GI50 [20]?
Answer: Its GI50 is 1410 nM.

Question: What about the TGI [20] of the same compound?
Answer: The TGI was 3060 nM.

Question: And the GI50 [21]?
Answer: The GI50 was 751 nM.

Question: And the TGI [21]?
Answer: The TGI was 2350 nM.

Question: What about the GI50 [22] of the same compound?
Answer: Its GI50 is 1160 nM.

Question: And the TGI [22]?
Answer: Its TGI is 2420 nM.

Question: And the GI50 [23]?
Answer: The GI50 was 1470 nM.

Question: And the TGI [23]?
Answer: The TGI was 2980 nM.

Question: What about the GI50 [24] of the same compound?
Answer: Its GI50 is 2060 nM.

Question: And the TGI [24]?
Answer: Its TGI is 4290 nM.

Question: What about the GI50 [25] of the same compound?
Answer: The GI50 was 1340 nM.

Question: And the TGI [25]?
Answer: Its TGI is 8480 nM.

Question: And the GI50 [26]?
Answer: Its GI50 is 1150 nM.

Question: And the TGI [26]?
Answer: Its TGI is 2560 nM.

Question: And the GI50 [27]?
Answer: Its GI50 is 1750 nM.

Question: And the TGI [27]?
Answer: The TGI was 4160 nM.

Question: And the GI50 [28]?
Answer: Its GI50 is 414 nM.

Question: And the TGI [28]?
Answer: The TGI was 1740 nM.

Question: What about the GI50 [29] of the same compound?
Answer: Its GI50 is 2050 nM.

Question: What about the TGI [29] of the same compound?
Answer: Its TGI is 7410 nM.

Question: What about the GI50 [30] of the same compound?
Answer: Its GI50 is 1870 nM.

Question: What about the TGI [30] of the same compound?
Answer: The TGI was 4050 nM.

Question: What about the GI50 [31] of the same compound?
Answer: Its GI50 is 18000 nM.

Question: What about the TGI [31] of the same compound?
Answer: Its TGI is 41800 nM.

Question: What about the GI50 [32] of the same compound?
Answer: The GI50 was 1660 nM.

Question: What about the TGI [32] of the same compound?
Answer: Its TGI is 3320 nM.

Question: And the GI50 [33]?
Answer: The GI50 was 1370 nM.

Question: What about the TGI [33] of the same compound?
Answer: Its TGI is 2960 nM.

Question: And the GI50 [34]?
Answer: The GI50 was 1530 nM.

Question: What about the TGI [34] of the same compound?
Answer: Its TGI is 2910 nM.

Question: And the GI50 [35]?
Answer: Its GI50 is 1940 nM.

Question: What about the TGI [35] of the same compound?
Answer: Its TGI is 6470 nM.

Question: And the GI50 [36]?
Answer: Its GI50 is 1810 nM.

Question: What about the TGI [36] of the same compound?
Answer: Its TGI is 3640 nM.

Question: What about the GI50 [37] of the same compound?
Answer: The GI50 was 29.2 nM.

Question: And the TGI [37]?
Answer: Its TGI is 1390 nM.

Question: And the GI50 [38]?
Answer: Its GI50 is 1330 nM.

Question: What about the TGI [38] of the same compound?
Answer: Its TGI is 2620 nM.

Question: What about the GI50 [39] of the same compound?
Answer: The GI50 was 3750 nM.

Question: What about the TGI [39] of the same compound?
Answer: The TGI was 14500 nM.

Question: What about the GI50 [40] of the same compound?
Answer: The GI50 was 2290 nM.

Question: And the TGI [40]?
Answer: Its TGI is 4630 nM.

Question: What about the GI50 [41] of the same compound?
Answer: Its GI50 is 2060 nM.

Question: And the TGI [41]?
Answer: The TGI was 7020 nM.

Question: What about the GI50 [42] of the same compound?
Answer: Its GI50 is 1580 nM.

Question: What about the TGI [42] of the same compound?
Answer: The TGI was 3240 nM.

Question: What about the GI50 [43] of the same compound?
Answer: Its GI50 is 1300 nM.

Question: What about the TGI [43] of the same compound?
Answer: Its TGI is 2840 nM.

Question: What about the GI50 [44] of the same compound?
Answer: Its GI50 is 1050 nM.

Question: And the TGI [44]?
Answer: Its TGI is 2620 nM.

Question: And the GI50 [45]?
Answer: The GI50 was 1330 nM.

Question: And the TGI [45]?
Answer: Its TGI is 3510 nM.

Question: What about the GI50 [46] of the same compound?
Answer: Its GI50 is 14500 nM.

Question: What about the TGI [46] of the same compound?
Answer: The TGI was 27800 nM.

Question: What about the GI50 [47] of the same compound?
Answer: The GI50 was 2570 nM.

Question: What about the TGI [47] of the same compound?
Answer: The TGI was 11200 nM.

Question: What about the GI50 [48] of the same compound?
Answer: Its GI50 is 1440 nM.

Question: What about the TGI [48] of the same compound?
Answer: Its TGI is 2960 nM.

Question: And the GI50 [49]?
Answer: Its GI50 is 1670 nM.

Question: What about the TGI [49] of the same compound?
Answer: Its TGI is 3280 nM.

Question: What about the GI50 [50] of the same compound?
Answer: Its GI50 is 1430 nM.

Question: And the TGI [50]?
Answer: Its TGI is 3370 nM.

Question: What about the GI50 [51] of the same compound?
Answer: The GI50 was 2120 nM.

Question: What about the TGI [51] of the same compound?
Answer: The TGI was 6990 nM.

Question: What about the GI50 [52] of the same compound?
Answer: The GI50 was 1440 nM.

Question: And the TGI [52]?
Answer: The TGI was 2880 nM.

Question: What about the GI50 [53] of the same compound?
Answer: The GI50 was 1490 nM.

Question: And the TGI [53]?
Answer: Its TGI is 2950 nM.

Question: And the GI50 [54]?
Answer: Its GI50 is 835 nM.

Question: And the TGI [54]?
Answer: The TGI was 2400 nM.

Question: What about the GI50 [55] of the same compound?
Answer: The GI50 was 15000 nM.

Question: And the TGI [55]?
Answer: Its TGI is 30700 nM.

Question: And the GI50 [56]?
Answer: The GI50 was 11900 nM.

Question: And the TGI [56]?
Answer: The TGI was 24400 nM.

Question: And the GI50 [57]?
Answer: Its GI50 is 57.6 nM.

Question: And the TGI [57]?
Answer: Its TGI is 1630 nM.

Question: And the GI50 [58]?
Answer: Its GI50 is 1710 nM.

Question: And the TGI [58]?
Answer: Its TGI is 6570 nM.
